Patent publication US10294202B2, “Pyrrolidinones as herbicides” (FMC Corporation, priority 2013, dated 2019)

Assays:
barnyardgrass = test: Test A pre-/postemergence herbicide test; type: in vivo, Echinochloa crus-galli
In short: (§1)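 Both application timings used compounds in a non-phytotoxic solvent plus surfactant. Pre-emergence: soil sprayed directly after seeding into loam/sand. Post-emergence: foliage of 2–10 cm seedlings (1–2 leaves) sprayed. Injury rated ~10 days later, 0–100.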

giant foxtail = test: Test A pre-/postemergence herbicide test; type: in vivo, Setaria faberii; conditions: for Plant response rating, Foxtail, Giant: 0 to 100 scale
In short: as §1

ducksalad = test: Test B flooded paddy test; type: in vivo, Heteranthera limosa; conditions: 500 g ai/ha, Flood; scale of 0 to 100 where 0 is no effect and 100 is complete control
In short: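 First, plants reach the 2-leaf stage; next, pots are flooded to 3 cm and compound is delivered into the water; finally, after 13 to 15 greenhouse days at constant depth, injury is graded visually from 0 to 100 against controls.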

ryegrass, Italian = test: Test C pre-/postemergence herbicide test; type: in vivo, Lolium multiflorum
In short: (§2)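 Herbicidal effect was judged by eye 13 to 15 days after treatment in the greenhouse, using a 0–100 scale against controls. Chemicals in a non-phytotoxic solvent with surfactant were sprayed onto planted loam/sand soil or onto plants 2 to 18 cm tall in a peat-based growing medium.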

corn = test: Test C pre-/postemergence herbicide test; type: in vivo, Zea mays
In short: as §2

crabgrass, large = test: Test C pre-/postemergence herbicide test; type: in vivo, Digitaria sanguinalis
In short: as §2

johnsongrass = test: Test C pre-/postemergence herbicide test; type: in vivo, Sorghum halepense
In short: as §2

lambsquarters = test: Test C pre-/postemergence herbicide test; type: in vivo, Chenopodium album
In short: as §2

nutsedge, yellow = test: Test C pre-/postemergence herbicide test; type: in vivo, Cyperus esculentus
In short: as §2

pigweed = test: Test C pre-/postemergence herbicide test; type: in vivo, Amaranthus retroflexus
In short: as §2

soybean = test: Test C pre-/postemergence herbicide test; type: in vivo, Glycine max
In short: as §2

[1] = Postemergence, 31 g ai/ha, scale 0 to 100 (0 no effect, 100 complete control)
[2] = Postemergence, 62 g ai/ha, scale 0 (no effect) to 100 (complete control)
[3] = Postemergence, 125 g ai/ha, scale 0 to 100 (0 no effect, 100 complete control)
[4] = Postemergence, 250 g ai/ha, scale 0 to 100 (0 no effect, 100 complete control)
[5] = Preemergence, 31 g ai/ha, scale 0 to 100, 0 is no effect and 100 is complete control
[6] = Preemergence, 62 g ai/ha, scale 0 to 100
[7] = Preemergence, 125 g ai/ha, scale 0 to 100 (0 no effect, 100 complete control)

O=C1NCC(c2ccc(F)cc2)C1C(=O)Nc1ccc(F)c(F)c1F (racemic) [Compound 120]
Plant response rating, Barnyardgrass (barnyardgrass; 125 g ai/ha, visual rating, 0 to 100 scale, 0 no effect, 100 complete control, approximately 10 days, preemergence): 90
Plant response rating, Barnyardgrass (barnyardgrass; Postemergence, 125 g ai/ha, 0 to 100 scale, 0 no effect, 100 complete control): 80
Plant response rating, Barnyardgrass (barnyardgrass; Postemergence, 500 g ai/ha, 0 to 100 scale (0 no effect, 100 complete control)): 90
Plant response rating, Barnyardgrass (barnyardgrass; preemergence, 500 g ai/ha, 0 to 100 scale (0 no effect, 100 complete control)): 90
Plant response rating, Foxtail, Giant (giant foxtail; 125 g ai/ha, visual rating, 0 no effect, 100 complete control, approximately 10 days, preemergence): 90
Plant response rating, Foxtail, Giant (giant foxtail; Postemergence, 125 g ai/ha, 0 no effect, 100 complete control): 80
Foxtail, Giant plant response rating (0 to 100 scale, 0 is no effect, 100 is complete control) (giant foxtail; Postemergence, 500 g ai/ha): 90
Plant response rating, Foxtail, Giant (giant foxtail; preemergence, 500 g ai/ha): 90
Plant response rating, Ducksalad (ducksalad): 100
Plant response rating, Ryegrass, Italian (ryegrass, Italian; [1]): 0
Plant response rating, Ryegrass, Italian (ryegrass, Italian; [2]): 0
Plant response rating, Ryegrass, Italian (ryegrass, Italian; [3]): 0
Plant response rating, Ryegrass, Italian (ryegrass, Italian; [4]): 10
Ryegrass, Italian plant response rating (ryegrass, Italian; [5]): 10
Plant response rating, Ryegrass, Italian (ryegrass, Italian; [6]): 5
Plant response rating, Ryegrass, Italian (ryegrass, Italian; [7]): 10
Plant response rating (scale of 0 to 100), Ryegrass, Italian (ryegrass, Italian; Preemergence, 250 g ai/ha): 30
Plant response rating, Corn (corn; [1]): 0
Plant response rating, Corn (corn; [2]): 0
Plant response rating, Corn (corn; [3]): 0
Plant response rating, Corn (corn; [4]): 0
Corn plant response rating (corn; [5]): 0
Plant response rating, Corn (corn; [6]): 0
Plant response rating, Corn (corn; [7]): 20
Plant response rating (scale of 0 to 100), Corn (corn; Preemergence, 250 g ai/ha): 65
Plant response rating, Crabgrass, Large (crabgrass, large; [1]): 55
Plant response rating, Crabgrass, Large (crabgrass, large; [2]): 70
Plant response rating, Crabgrass, Large (crabgrass, large; [3]): 70
Plant response rating, Crabgrass, Large (crabgrass, large; [4]): 75
Crabgrass, Large plant response rating (crabgrass, large; [5]): 98
Plant response rating, Crabgrass, Large (crabgrass, large; [6]): 100
Plant response rating, Crabgrass, Large (crabgrass, large; [7]): 100
Plant response rating (scale of 0 to 100), Crabgrass, Large (crabgrass, large; Preemergence, 250 g ai/ha): 100
Plant response rating, Johnsongrass (johnsongrass; [1]): 0
Plant response rating, Johnsongrass (johnsongrass; [2]): 0
Plant response rating, Johnsongrass (johnsongrass; [3]): 0
Plant response rating, Johnsongrass (johnsongrass; [4]): 0
Johnsongrass plant response rating (johnsongrass; [5]): 0
Plant response rating, Johnsongrass (johnsongrass; [6]): 0
Plant response rating, Johnsongrass (johnsongrass; [7]): 25
Plant response rating (scale of 0 to 100), Johnsongrass (johnsongrass; Preemergence, 250 g ai/ha): 65
Plant response rating, Lambsquarters (lambsquarters; [1]): 55
Plant response rating, Lambsquarters (lambsquarters; [2]): 55
Plant response rating, Lambsquarters (lambsquarters; [3]): 60
Plant response rating, Lambsquarters (lambsquarters; [4]): 70
Lambsquarters plant response rating (lambsquarters; [5]): 35
Plant response rating, Lambsquarters (lambsquarters; [6]): 70
Plant response rating, Lambsquarters (lambsquarters; [7]): 85
Plant response rating (scale of 0 to 100), Lambsquarters (lambsquarters; Preemergence, 250 g ai/ha): 90
Plant response rating, Nutsedge, Yellow (nutsedge, yellow; [1]): 0
Plant response rating, Nutsedge, Yellow (nutsedge, yellow; [2]): 0
Plant response rating, Nutsedge, Yellow (nutsedge, yellow; [3]): 0
Plant response rating, Nutsedge, Yellow (nutsedge, yellow; [4]): 0
Nutsedge, Yellow plant response rating (nutsedge, yellow; [5]): 0
Plant response rating, Nutsedge, Yellow (nutsedge, yellow; [6]): 0
Plant response rating, Nutsedge, Yellow (nutsedge, yellow; [7]): 0
Plant response rating (scale of 0 to 100), Nutsedge, Yellow (nutsedge, yellow; Preemergence, 250 g ai/ha): 0
Plant response rating, Pigweed (pigweed; [1]): 5
Plant response rating, Pigweed (pigweed; [2]): 20
Plant response rating, Pigweed (pigweed; [3]): 40
Plant response rating, Pigweed (pigweed; [4]): 60
Pigweed plant response rating (pigweed; [5]): 50
Plant response rating, Pigweed (pigweed; [6]): 45
Plant response rating, Pigweed (pigweed; [7]): 65
Plant response rating (scale of 0 to 100), Pigweed (pigweed; Preemergence, 250 g ai/ha): 80
Plant response rating, Soybean (soybean; [1]): 0
Plant response rating, Soybean (soybean; [2]): 0
Plant response rating, Soybean (soybean; [3]): 0
Plant response rating, Soybean (soybean; [4]): 0
Soybean plant response rating (soybean; [5]): 0
Plant response rating, Soybean (soybean; [6]): 0
Plant response rating, Soybean (soybean; [7]): 0
Plant response rating (scale of 0 to 100), Soybean (soybean; Preemergence, 250 g ai/ha): 0
